The test system of data set [1] is SP1.A3a mouse mammary carcinoma cells. Put plainly: Growth factor dependent proliferation of SP1.A3a cells in vitro (tritiated thymidine). Type of data set: cell-based. Particulars: 0.2 μg/ml, FIG. 7. The method, then: SP1.A3a mouse mammary carcinoma cells were grown for 24 hours in culture medium containing 10% bovine serum, with and without swainsonine hydrochloride at a concentration of 0.2 μg/ml. In the following 24 hours cells were maintained in serum-free medium (SFM) with and without swainsonine hydrochloride. Cells were then grown in the absence of growth factors for 6 hours, or exposed to one of the following growth factors: TNFα (tumor necrosis factor-α), TGFβ1 (transforming growth factor-β), TGFα, platelet-derived growth factor (PDGF), epidermal growth factor (EGF). Tritiated thymidine was added for a final 18 hours, cells were harvested using a multiple-cell harvester and radioactivity was measured in a β-counter as a measure of cell proliferation.

The nature of data set [2]: Preformulation pH stability study in buffered solutions. Type of data set: physicochemical. The note with it: pH 4 and 7, ambient and stressed (40° C. and 50° C.) storage. The procedure:
Preformulation studies of swainsonine hydrochloride, bulk drug substance, and in combination with powder and semisolid fill gelatin capsules were conducted with respect to the following: hygroscopicity, pH, stability, and solubility. […] At 20% and 50% RH it absorbed 1.9% and 2.1% of water by Karl Fischer after 48 hours of storage. The moisture uptake diminishes when anhydrous powder excipients (e.g. lactose anhydrous and mannitol powder) are used to formulate the pharmaceutical active into a hard capsule.

The subject of data set [3] is SP1.A3a mouse mammary adenocarcinoma. The data set is described as follows: SP1.A3a tumor growth in mice, Alzet mini-osmotic pump. Type of data set: in vivo, CBA/J mice. The note with it: for difference in mean tumour volume between control and treatment groups: 0.5 mg/kg/day via osmotic pump over 28 days. The method, then: A metastatic subclone of the SP1 tumor line (A3a), mouse mammary adenocarcinoma was maintained in exponential growth in RPMI 1640 containing 10% FBS. The cells were harvested and resuspended at 1×10^6/ml or 1×10^7/ml in PBS and 0.1 ml containing 1×10^5 injected S.C. into the right flank of 7 week old female CBA/J mice (Jackson Laboratories). Alzet mini-osmotic pumps were implanted subcutaneously, on the opposite side of anesthetized animals. The pumps were primed to deliver saline (control) or 0.5 mg/kg/day of swainsonine hydrochloride over 28 days. Mice were monitored for the appearance of a palpable tumour and subsequent tumor growth was measured using bernier callipers. Tumor weights and the number of lung metastasis were measured on day 42.

Data set [4] deals with granulocyte-macrophage progenitor cells (CFU-GM). The data set is described as follows: Murine bone marrow progenitor cell assay in methylcellulose, CFU-GM. Type of data set: cell-based, C57BL/6 mouse. The note with it: FIG. 11. The procedure: The healthy and GD0039 treated mice were euthanized by CO2 asphyxiation. Bone marrow (BM) cell suspensions were prepared under sterile conditions by flushing both femurs and tibiae with IMDM/FBS using a 26 gauge needle. Single cell suspensions were made up to 10.0 ml IMDM/FBS. The concentration of nucleated cells in each suspension was determined by triplicate counts on a hemocytometer. A portion of the cells was further diluted in media to the appropriate concentration before plating for the progenitor assay.
Colony-forming units (CFUs) were estimated by the methylcellulose method. One milliliter suspensions, containing 2×10^5 nucleated BM cells, in 0.1 ml of IMDM and 0.9 ml MethoCult (M3330), were plated in triplicate in 35 mm tissue culture dishes. Swainsonine hydrochloride or swainsonine were added to certain plates, in 0.1 ml of IMDM at concentrations of 30 μg/ml and 3 μg/ml, which gave final concentrations of […]. The MethoCult M3330 contains 30% FBS and 10 μg/ml erythropoietin and is designed for the growth of early erythroid progenitor cells (CFU-E), which were scored after 3 days of incubation at 37° C. in a humidified atmosphere containing 5% CO2. […] Colonies containing more than 20 cells were scored using an inverted microscope with brightfield optics and 40× or 100× magnification. […]

The nature of data set [5]: Solubility in distilled water at room temperature. Type of data set: physicochemical. The method, then:
The melting point of the clear swainsonine hydrochloride crystal (prism) was 190-191° C. The solubility of swainsonine hydrochloride in distilled water at room temperature was about 3 g/ml, in contrast to the solubility of swainsonine free base, which is about 0.8 g/ml (see Table 5).

Data set [6] concerns SP1.A3a mouse mammary adenocarcinoma. Put plainly: SP1.A3a tumor growth in mice, oral administration in drinking water. Type of data set: in vivo, CBA/J mice. The method, then:
The experiment was repeated using swainsonine hydrochloride administered in drinking water. SP1.A3a mouse mammary adenocarcinoma were maintained in exponential growth in RPMI 1640 medium containing 10% FBS. The cells were harvested and re-suspended at 3×10^5/ml in PBS and 0.1 ml containing 3×10^4 cells injected S.C. into the right flank of 7 week old female CBA/J mice (Jackson Laboratories) (n=25). The mice were subsequently supplied with drinking water alone (n=13) or drinking water containing 10 μg/ml swainsonine hydrochloride (n=12) (equivalent to a dose of 2 mg/kg/day).
Once a palpable tumor was evident, tumor size was measured twice a week using vernier callipers. At the end of the treatment period the tumors were excised and weighed.

SMILES strings stand for the structures.

Take `Cl.O[C@H]1[C@H]2[C@H](O)CCCN2C[C@@H]1O` [swainsonine hydrochloride, (−)-(1S,2S,8R,8aR)-1,2,8-trihydroxyoctahydro-indolizidine hydrochloride salt]: the “TGF-β1 and TNF-α dependent growth stimulation of SP1.A3a cells” value in data set [1] was “suppresses”. Also, in data set [2], the “stability in buffered solutions” value was “stable”. The “difference in mean tumour volume between control and treatment groups” value in data set [3] (day 29 as printed) came out at 27%; in data set [3] (day 32) it was 35%; in data set [3] (day 42), 32%. Further, the mean tumour weight in data set [3] (0.5 mg/kg/day via osmotic pump, 42 day sacrifice, control 7.35 g) stood at 4.87 g. In addition, the “incidence of lung metastasis, average” value in data set [3] (0.5 mg/kg/day via osmotic pump, day 42 sacrifice, control 1.8) is on record as 0.25 nodules/mouse. Besides, in data set [4], the “effect on granulocyte-macrophage progenitor cells in vitro” value is listed as “stimulate”. Also, the “solubility in distilled water at room temperature” value was 3000 mg/mL in data set [5] (Table 5) and “about 3 g/ml” in data set [5] (distilled water, room temperature). Moreover, the “tumor growth versus control mice” value in data set [6] (10 μg/ml in drinking water (2 mg/kg/day), FIG. 9) is “slower growing tumors”. Besides, the mean tumor weight in data set [6] (10 μg/ml in drinking water, at 31 days, untreated 3.33 g) is reported as 1.79 g.

The values above are taken from patent US6395745B1, “Alkaloid halide salts of swainsonine and methods of use” (priority 1997, dated 2002).
